# Data reported in US20120107391A1, “THERAPY OF PLATINUM-RESISTANT CANCER” (Genentech, Inc., priority 2004, published 2012).
# Counter-ions that a name gives are not always drawn.
# Tests used:
# [1] = tested on: platinum-resistant ovarian cancer; conditions: patients with platinum-resistant disease; cited from earlier work
# [2] = cited from earlier work
# MDA-MB-175 cells = experiment: Growth inhibition of MDA-MB-175 cells, crystal violet staining, 4 days; format: cell-based; conditions: 10 μg/mL
# Procedure: Experiment was carried out in medium containing 1% serum. HER2 antibodies or medium alone were added and the cells were incubated for 2 hours at 37° C. Subsequently rHRGβ1 (1 nM) or medium alone were added and the cells were incubated for 4 days. Monolayers were washed and stained/fixed with 0.5% crystal violet. To determine cell proliferation the absorbance was measured at 540 nm.
# HER2 levels in MDA-MB-175 cells are 4-6 times higher than the level found in normal breast epithelial cells and the HER2-HER4 receptor is constitutively tyrosine phosphorylated in MDA-MB-175 cells. […] Inhibition of cell proliferation by 4D5 is dependent on the HER2 expression level (Lewis et al. Cancer Immunol. Immunother. 37:255-263 (1993)). […] However this effect could be overcome by exogenous HRG.
# [3] = tested on: mitogen-activated protein kinase (MAPK) activation in MCF7 cells; experiment: EGF, TGF-α or HRG mediated activation of MAPK in MCF7 cells (Western blot); format: cell-based, human; conditions: 200 nM antibody, 1 nM EGF, 1 nM TGF-α or 0.2 nM HRG
# Procedure: Many growth factor receptors signal through the mitogen-activated protein kinase (MAPK) pathway. These dual specificity kinases are one of the key endpoints in signal transduction pathways that ultimately triggers cancer cells to divide. […] MCF7 cells (10^5 cells/well) were plated in serum containing media in 12-well cell culture plates. The next day, the cell media was removed and fresh media containing 0.1% serum was added to each well. This procedure was then repeated the following day and prior to assay the media was replaced with serum-free binding buffer (Jones et al. J. Biol. Chem. 273:11667-74 (1998); and Schaefer et al. J. Biol. Chem. 274:859-66 (1999)). […] Cells were then treated with 1 nM EGF, 1 nM TGF-α or 0.2 nM HRG for 15 minutes. The reaction was stopped by aspirating the cell medium and then adding 0.2 mL SDS-PAGE sample buffer containing 1% DTT. MAPK activation was assessed by Western blotting using an anti-active MAPK antibody (Promega) as described previously (Jones et al. J. Biol. Chem. 273:11667-74 (1998)).
# [4] = tested on: Akt activation in MCF7 breast cancer cells; conditions: cited from earlier work
# SK-BR-3 cells = experiment: Growth inhibition of SK-BR-3 cells, crystal violet staining, 4 days, with or without rHRGβ1; format: cell-based, human; conditions: FIG. 4B
# [5] = tested on: HRG stimulation of p180 tyrosine phosphorylation in MCF7 cells; experiment: Inhibition of HRG-stimulated p180 tyrosine phosphorylation in MCF7 cells (antiphosphotyrosine immunoblot, reflectance densitometry); format: cell-based, human; conditions: MCF7, 0.2 nM rHRGβ1
# Procedure: MCF7 cells were seeded in 24-well plates (1×10^5 cells/well) and grown to about 85% confluency for two days.
# MCF7 cells were plated in 24-well plates and monoclonal antibodies to HER2 were added to each well and incubated for 30 minutes at room temperature; then rHRGβ1177-244 was added to each well to a final concentration of 0.2 nM, and the incubation was continued for 8 minutes. Media was carefully aspirated from each well, and reactions were stopped by the addition of 100 μl of SDS sample buffer (5% SDS, 25 mM DTT, and 25 mM Tris-HCl, pH 6.8). Each sample (25 μl) was electrophoresed on a 4-12% gradient gel (Novex) and then electrophoretically transferred to polyvinylidene difluoride membrane. Antiphosphotyrosine (4G10, from UBI, used at 1 μg/ml) immunoblots were developed, and the intensity of the predominant reactive band at Mr ˜180,000 was quantified by reflectance densitometry, as described previously (Holmes et al. Science 256:1205-1210 (1992); Sliwkowski et al. J. Biol. Chem. 269:14661-14665 (1994)).
# advanced ovarian cancer = conditions: one of 3 subjects with advanced ovarian cancer; cited from earlier work
compound,measurement,setting,value
CC[C@@]1(O)C(=O)OCc2c1cc1n(c2=O)Cc2cc3c(CN(C)C)c(O)ccc3nc2-1 [Topotecan],partial response rate,[1],6%
"Nc1ccn([C@@H]2O[C@H](CO)[C@@H](O)C2(F)F)c(=O)n1 [Gemcitabine, 2′-deoxy-2′,2′-difluorocytidine monohydrochloride (b-isomer)]",toxicity when combined with other chemotherapeutic agents,"[2]; combined with taxanes, anthracyclines, platinums",without any significant increases or unexpected toxicities
same,combined incidence of nausea and vomiting,[2]; single agent,69%
same,incidence of anemia,[2]; single agent,68%
same,incidence of diarrhea,[2]; single agent,19%
same,incidence of neutropenia,[2]; single agent,63%
same,incidence of rash,[2]; single agent,30%
same,"nausea and vomiting, grade III incidence",[2]; single agent,13%
same,"nausea and vomiting, grade IV incidence",[2]; single agent,1%
same,"rash, grade III incidence",[2]; single agent,1%
same,partial response rate,[1],16%
"2C4: Murine monoclonal antibody binding the extracellular domain of HER2, ATCC HB-12697 [Mutant 2C4]",growth inhibitory effect on MDA-MB-175 cells,MDA-MB-175 cells,strong growth inhibitory effect
same,"block of EGF, TGF-α and HRG mediated activation of MAPK",[3],significantly blocks
same,basal level of Akt activation,"[4]; MCF7, absence of heregulin addition",further reduced
same,heregulin-mediated Akt activation,"[4]; MCF7, Agus et al. 2002",inhibits
same,inhibitory effect on HER2 overexpressing cell line SK-BR-3,SK-BR-3 cells,no inhibitory effect
same,"generation of HRG-induced tyrosine phosphorylation signal at Mr 180,000",[5],significantly inhibited
Pertuzumab: Antibody with light and heavy chain SEQ ID NOS. 16 and 17; humanized version 574 variable domains with human IgG1 constant region,response,advanced ovarian cancer,durable partial response
